Values of other authors as cited in patent US20050129764A1, “Osmotic device containing licofelone” (priority 2003, published 2005).

Key:
[1] = system: osteoarthritis of the knee; details: phase III
[2] = 200 mg dose administered twice daily
[3] = single dose (800-3,200) mg, volunteers

CC1(C)Cc2c(-c3ccccc3)c(-c3ccc(Cl)cc3)c(CC(=O)O)n2C1 [licofelone]
improvement in efficacy parameters ([1]; licofelone 400 mg/day bid): greatest improvement in efficacy parameters
efficacy in long-term treatment of osteoarthritis of the knee vs naproxen ([1]; n=704, licofelone 200 and 400 mg/day bid, naproxen 1000 mg/day bid): at least as effective as naproxen
activity in animal experiments: antiphlogistic, analgesic, antipyretic, antiasthmatic and antiaggregative activity
gastrointestinal damage at active dosage (animal experiments): no gastrointestinal damage
elimination half-life (T1/2β) [2]: 8.7 to 11.1 h
peak plasma licofelone concentrations [2]: 1650 to 1750 ng/mL
time post-dose at which peak plasma concentrations were reached [2]: 0.74 to 4 h
tolerability [3]: generally well tolerated
